Measurements published in publication PMC3488005, “A yeast expression system for functional and pharmacological studies of the malaria parasite Ca^2+/H^+ antiporter” (Malaria Journal, 2012).

Columns and labels:
PfCHA = molecular target: T1, PfCHA (Plasmodium falciparum, UniProt C6KSN3); assay: whole-cell apoaequorin luminescence of cytosolic Ca2+ (AUC […]-16 s), 96-well; type: cell-based
T1 construct: gene PF3D7_0603500; full-length ORF (about 1321 bp, approx. 49 kDa) in pGREG505 (GAL1 promoter), expressed in S. cerevisiae vcx1 knock-out (Y03825), vacuole membrane; apoaequorin co-expressed as reporter
T1 sequence (C6KSN3 1-441): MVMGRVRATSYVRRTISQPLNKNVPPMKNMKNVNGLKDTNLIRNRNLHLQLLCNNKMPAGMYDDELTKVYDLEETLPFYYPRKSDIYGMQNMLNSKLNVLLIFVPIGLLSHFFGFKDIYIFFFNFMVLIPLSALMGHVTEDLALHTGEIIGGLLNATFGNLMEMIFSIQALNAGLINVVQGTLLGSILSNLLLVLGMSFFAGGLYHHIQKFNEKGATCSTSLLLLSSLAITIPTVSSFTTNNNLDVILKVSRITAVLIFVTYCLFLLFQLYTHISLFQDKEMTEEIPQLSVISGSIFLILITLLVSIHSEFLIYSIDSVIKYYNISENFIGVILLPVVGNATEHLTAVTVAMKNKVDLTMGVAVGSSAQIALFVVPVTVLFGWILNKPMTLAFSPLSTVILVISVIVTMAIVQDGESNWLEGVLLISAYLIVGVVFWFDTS

Vcx1p (VCX1) = molecular target: T2, Vcx1p (VCX1) (Saccharomyces cerevisiae, UniProt Q99385); assay: as above; type: cell-based; conditions: read-out: concentrations at which their transport was inhibited by 50%
T2 construct: full-length gene (1236 bp) in pGREG505 (GAL1 promoter), re-expressed in S. cerevisiae vcx1 knock-out (Y03825); apoaequorin co-expressed as reporter
T2 sequence (Q99385 1-411): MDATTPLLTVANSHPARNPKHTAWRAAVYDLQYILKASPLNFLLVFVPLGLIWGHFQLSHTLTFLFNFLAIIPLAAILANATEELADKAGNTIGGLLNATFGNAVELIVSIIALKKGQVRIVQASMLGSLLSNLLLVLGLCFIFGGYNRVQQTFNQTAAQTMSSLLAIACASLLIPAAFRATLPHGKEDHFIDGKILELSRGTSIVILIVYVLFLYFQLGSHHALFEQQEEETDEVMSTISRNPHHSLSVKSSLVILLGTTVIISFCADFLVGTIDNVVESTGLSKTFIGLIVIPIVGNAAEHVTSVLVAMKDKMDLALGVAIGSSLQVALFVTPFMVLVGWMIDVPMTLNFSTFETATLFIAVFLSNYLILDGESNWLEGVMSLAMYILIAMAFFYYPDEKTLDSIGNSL

N=C(N)SCCc1ccc(OCc2ccc([N+](=O)[O-])cc2)cc1 [KB-R7943]
IC50 (PfCHA): 17.5 µM
IC50 (Vcx1p (VCX1)): 12.5 µM
